Test results: US20190330224A1, “ACC INHIBITORS AND USES THEREOF” (Gilead Apollo, LLC, priority 2015, published 2019)
Converted amounts (≈) assume the structure as drawn.

Tests used:
Human ACC2 = Human ACC2 (Homo sapiens, UniProt O00763); experiment: In vitro ACC2 inhibition assay (ADP-Glo), human ACC2; type: biochemical; details: 5 nM ACC2, 20 μM ATP, 20 μM acetyl-CoA
C. albicans ATCC 90028 = experiment: Anti-Fungal Activity Assay (broth microtiter MIC), C. albicans; type: cell-based, Candida albicans; details: Candida albicans, ATCC90028, 48 h, 3 replicates; MIC recorded at 48 h; read-out: MIC C. albicans ATCC 90028
Description: (§1) Compounds of the present invention were evaluated in an Anti-Fungal Activity Assay. An exemplary procedure for the assay, which measures the susceptibility of various Candida species to anti-fungal compounds, follows. Compounds to be tested (including fluconazole and amphotericin B) were dissolved in DMSO to obtain a solution having a concentration of 1 mg/mL. […] All species were grown from frozen stock by directly plating on to freshly prepared Sabouraud Dextrose agar (BD, Difco) and incubated overnight in ambient air at 35° C. for 24 h. A direct suspension was prepared in RPMI 1640+MOPS (Lonza, Biowhittaker) by taking individual colonies from the overnight cultures using sterile swabs soaked in sterile saline. The concentration of the suspension was determined using pre-determined standard curves. […] Broth microtiter MIC challenge plates were prepared following CLSI guidelines (M27-A3, Vol. 28 No. 14). The original CLSI guidelines focused on reading Candida MICs after 48 h of incubation. As reading after only 24 h offers a clear advantage of patient care, QC limits are being established for all drugs at 24 h. That being said there are no known interpretive breakpoints for amphotericin B at 24 h and the current fluconazole interpretive breakpoints are based on a 48 h reading. The MIC breakpoints for the test compounds were recorded at 48 h, and for the soraphen the 24 h time-point was added. All MIC determinations were achieved by visually comparing the growth found in the antibiotic challenged wells to that of the growth control.

[1] = tested on: C. parapsilosis ATCC 22019; experiment: Anti-Fungal Activity Assay (broth microtiter MIC), C. parapsilosis; type: cell-based, Candida parapsilosis; details: Lodderomyces parapsilosis, ATCC22019, 48 h, 3 replicates; MIC recorded at 48 h; read-out: MIC C. parapsilosis ATCC 22019
Description: as §1

C. krusei ATCC 6258 = experiment: Anti-Fungal Activity Assay (broth microtiter MIC), C. krusei; type: cell-based, Candida krusei; details: Pichia kudriavzevii, ATCC6258, 48 h, 3 replicates; MIC recorded at 48 h; read-out: MIC C. krusei ATCC 6258
Description: as §1

Chain of Human ACC2 (O00763 whole entry): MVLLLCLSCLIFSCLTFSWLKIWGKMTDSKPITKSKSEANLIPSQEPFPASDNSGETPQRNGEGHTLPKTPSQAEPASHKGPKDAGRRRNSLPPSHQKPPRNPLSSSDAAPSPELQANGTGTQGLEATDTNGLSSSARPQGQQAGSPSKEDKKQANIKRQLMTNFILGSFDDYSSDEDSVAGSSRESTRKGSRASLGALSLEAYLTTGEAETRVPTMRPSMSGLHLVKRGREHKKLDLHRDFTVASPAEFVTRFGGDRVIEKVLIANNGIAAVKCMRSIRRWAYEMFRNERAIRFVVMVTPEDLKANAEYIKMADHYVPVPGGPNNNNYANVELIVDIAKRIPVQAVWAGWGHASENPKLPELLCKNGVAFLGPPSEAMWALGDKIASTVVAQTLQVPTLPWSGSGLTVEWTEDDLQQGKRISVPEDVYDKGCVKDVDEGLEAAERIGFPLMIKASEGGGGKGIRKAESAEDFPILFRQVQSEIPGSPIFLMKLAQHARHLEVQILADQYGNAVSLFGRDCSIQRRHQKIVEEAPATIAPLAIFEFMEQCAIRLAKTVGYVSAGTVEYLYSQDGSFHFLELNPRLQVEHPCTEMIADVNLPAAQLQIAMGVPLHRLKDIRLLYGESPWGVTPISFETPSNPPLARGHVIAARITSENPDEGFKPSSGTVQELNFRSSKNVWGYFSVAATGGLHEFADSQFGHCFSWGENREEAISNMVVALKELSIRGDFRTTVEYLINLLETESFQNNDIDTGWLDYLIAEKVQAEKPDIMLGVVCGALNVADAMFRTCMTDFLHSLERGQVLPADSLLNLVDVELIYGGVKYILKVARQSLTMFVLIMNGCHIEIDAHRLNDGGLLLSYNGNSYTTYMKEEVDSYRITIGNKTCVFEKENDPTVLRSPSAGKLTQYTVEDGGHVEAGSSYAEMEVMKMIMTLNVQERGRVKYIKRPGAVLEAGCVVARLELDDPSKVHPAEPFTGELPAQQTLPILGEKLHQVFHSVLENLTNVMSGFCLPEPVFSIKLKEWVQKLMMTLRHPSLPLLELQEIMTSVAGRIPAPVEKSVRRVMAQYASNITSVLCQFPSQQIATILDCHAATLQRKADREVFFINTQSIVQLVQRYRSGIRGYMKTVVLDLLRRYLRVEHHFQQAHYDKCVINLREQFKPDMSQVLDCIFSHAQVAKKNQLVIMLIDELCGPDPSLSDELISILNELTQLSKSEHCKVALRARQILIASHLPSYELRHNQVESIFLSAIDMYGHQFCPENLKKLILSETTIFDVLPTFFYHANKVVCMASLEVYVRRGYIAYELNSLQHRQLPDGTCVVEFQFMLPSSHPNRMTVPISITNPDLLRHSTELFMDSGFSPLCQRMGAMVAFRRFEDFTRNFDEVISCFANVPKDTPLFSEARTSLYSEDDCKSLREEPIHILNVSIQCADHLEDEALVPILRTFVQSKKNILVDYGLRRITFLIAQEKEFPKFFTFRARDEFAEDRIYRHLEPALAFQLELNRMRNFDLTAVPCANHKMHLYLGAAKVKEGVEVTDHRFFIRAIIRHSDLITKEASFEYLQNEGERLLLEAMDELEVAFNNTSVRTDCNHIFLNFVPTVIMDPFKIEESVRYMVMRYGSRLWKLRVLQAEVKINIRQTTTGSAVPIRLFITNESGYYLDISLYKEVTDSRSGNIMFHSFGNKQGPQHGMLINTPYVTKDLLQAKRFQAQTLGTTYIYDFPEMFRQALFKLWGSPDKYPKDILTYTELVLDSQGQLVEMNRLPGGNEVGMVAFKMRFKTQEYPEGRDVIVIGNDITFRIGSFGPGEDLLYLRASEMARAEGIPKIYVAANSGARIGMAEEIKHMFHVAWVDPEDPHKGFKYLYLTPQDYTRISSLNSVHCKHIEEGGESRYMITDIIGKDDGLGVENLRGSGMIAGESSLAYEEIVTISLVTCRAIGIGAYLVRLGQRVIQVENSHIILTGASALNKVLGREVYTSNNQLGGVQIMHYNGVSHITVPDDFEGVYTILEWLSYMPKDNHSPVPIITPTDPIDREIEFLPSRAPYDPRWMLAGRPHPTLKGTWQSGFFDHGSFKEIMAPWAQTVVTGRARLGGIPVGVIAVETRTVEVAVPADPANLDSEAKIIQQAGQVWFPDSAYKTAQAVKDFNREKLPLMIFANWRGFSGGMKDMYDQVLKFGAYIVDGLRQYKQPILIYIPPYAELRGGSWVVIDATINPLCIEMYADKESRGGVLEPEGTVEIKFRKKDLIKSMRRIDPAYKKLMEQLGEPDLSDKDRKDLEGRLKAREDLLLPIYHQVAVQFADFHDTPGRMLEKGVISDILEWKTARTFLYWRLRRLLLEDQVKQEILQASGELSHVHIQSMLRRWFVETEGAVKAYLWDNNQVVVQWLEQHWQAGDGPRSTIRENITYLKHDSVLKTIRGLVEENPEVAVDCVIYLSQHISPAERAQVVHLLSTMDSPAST

In the case of COc1ccc(F)cc1[C@H](Cn1c(=O)n([C@]2(C)CCNC2=O)c(=O)c2c(C)c(-n3nccn3)sc21)OCCO [Compound I-144, 1-((R)-2-(5-fluoro-2-methoxyphenyl)-2-(2-hydroxyethoxy)ethyl)-5-methyl-3-((R)-3-methyl-2-oxopyrrolidin-3-yl)-6-(2H-1,2,3-triazol-2-yl)thieno[2,3-d]pyrimidine-2,4(1H,3H)-dione], the IC50 (Human ACC2) is reported as > 1 µM.
CCN1CC[C@@H](n2c(=O)c3c(C)c(-n4nccn4)sc3n(C[C@H](OC3CCOCC3)c3cc(F)ccc3OC)c2=O)C1=O [Compound I-151] gave an MIC (C. albicans ATCC 90028) of 0.25 to 1 µg/mL (≈ 0.408 to 1.63 µM), an MIC [1] of 0.25 to 1 µg/mL (≈ 0.408 to 1.63 µM) and an MIC (C. krusei ATCC 6258) of 0.075 to 0.24 µg/mL (≈ 0.122 to 0.392 µM). For the same compound, the IC50 (Human ACC2) was 0.002 to 0.01 µM.
In the case of COc1ccc(F)cc1[C@H](Cn1c(=O)n(C2CCCNC2=O)c(=O)c2c(C)c(-n3nccn3)sc21)OC1CCOCC1 (stereo partly drawn) [Compound I-21, 1-((R)-2-(5-fluoro-2-methoxyphenyl)-2-((tetrahydro-2H-pyran-4-yl)oxy)ethyl)-5-methyl-3-(2-oxopiperidin-3-yl)-6-(2H-1,2,3-triazol-2-yl)thieno[2,3-d]pyrimidine-2,4(1H,3H)-dione], the MIC (C. albicans ATCC 90028) is reported as 0.25 to 1 µg/mL (≈ 0.418 to 1.67 µM), the MIC [1] is reported as 1.1 to 2 µg/mL (≈ 1.84 to 3.34 µM) and the MIC (C. krusei ATCC 6258) is reported as 0.25 to 1 µg/mL (≈ 0.418 to 1.67 µM). The IC50 (Human ACC2) was 0.002 to 0.01 µM.
For COc1ccc(F)cc1[C@H](Cn1c(=O)n(C2CCNC2=O)c(=O)c2c(C)c(-c3ncco3)sc21)OC1CCOCC1 (stereo partly drawn) [Compound I-58, 1-((R)-2-(5-fluoro-2-methoxyphenyl)-2-((tetrahydro-2H-pyran-4-yl)oxy)ethyl)-5-methyl-6-(oxazol-2-yl)-3-(2-oxopyrrolidin-3-yl)thieno[2,3-d]pyrimidine-2,4(1H,3H)-dione], the MIC (C. albicans ATCC 90028) was 2.1 to 4 µg/mL (≈ 3.59 to 6.84 µM), the MIC [1] was 2.1 to 4 µg/mL (≈ 3.59 to 6.84 µM) and the MIC (C. krusei ATCC 6258) was 2.1 to 4 µg/mL (≈ 3.59 to 6.84 µM). The IC50 (Human ACC2) was 0.002 to 0.01 µM.
Work on COc1ccc(F)cc1[C@H](Cn1c(=O)n(C2CCCN(C)C2=O)c(=O)c2c(C)c(-c3ncco3)sc21)OC1CCOCC1 (stereo partly drawn) [Compound I-52, 1-((R)-2-(5-fluoro-2-methoxyphenyl)-2-((tetrahydro-2H-pyran-4-yl)oxy)ethyl)-5-methyl-3-(I-methyl-2-oxopiperidin-3-yl)-6-(oxazol-2-yl)thieno[2,3-d]pyrimidine-2,4(1H,3H)-dione] yielded an MIC (C. albicans ATCC 90028) of 2.1 to 4 µg/mL (≈ 3.43 to 6.53 µM), an MIC [1] of 2.1 to 4 µg/mL (≈ 3.43 to 6.53 µM) and an MIC (C. krusei ATCC 6258) of 1.1 to 2 µg/mL (≈ 1.8 to 3.26 µM). The IC50 (Human ACC2) was 0.01 to 0.1 µM.
With COc1ccccc1[C@H](Cn1c(=O)n(C2CCNC2=O)c(=O)c2c(C)c(-c3ncco3)sc21)OC1CCOCC1 (stereo partly drawn) [Compound I-56, 1-((R)-2-(2-methoxyphenyl)-2-((tetrahydro-2H-pyran-4-yl)oxy)ethyl)-5-methyl-6-(oxazol-2-yl)-3-(2-oxopyrrolidin-3-yl)thieno[2,3-d]pyrimidine-2,4(1H,3H)-dione] the MIC (C. albicans ATCC 90028) was 2.1 to 4 µg/mL (≈ 3.71 to 7.06 µM), the MIC [1] was 2.1 to 4 µg/mL (≈ 3.71 to 7.06 µM) and the MIC (C. krusei ATCC 6258) was 2.1 to 4 µg/mL (≈ 3.71 to 7.06 µM). The IC50 (Human ACC2) was 0.002 to 0.01 µM.
Compound COc1ccccc1[C@H](Cn1c(=O)n(C2CCCNC2=O)c(=O)c2c(C)c(-c3ncco3)sc21)OC1CCOCC1 (stereo partly drawn) [Compound I-49, 1-((R)-2-(2-methoxyphenyl)-2-((tetrahydro-2H-pyran-4-yl)oxy)ethyl)-5-methyl-6-(oxazol-2-yl)-3-(2-oxopiperidin-3-yl)thieno[2,3-d]pyrimidine-2,4(1H,3H)-dione] has an MIC (C. albicans ATCC 90028) of 1.1 to 2 µg/mL (≈ 1.89 to 3.44 µM), an MIC [1] of 2.1 to 4 µg/mL (≈ 3.62 to 6.89 µM) and an MIC (C. krusei ATCC 6258) of 2.1 to 4 µg/mL (≈ 3.62 to 6.89 µM). For the same compound, the IC50 (Human ACC2) was 0.01 to 0.1 µM.
Work on COc1ccc(F)cc1[C@H](Cn1c(=O)n([C@H]2CCCNC2=O)c(=O)c2c(C)c(-c3ncco3)sc21)OCCO [Compound I-62, 1-((R)-2-(5-fluoro-2-methoxyphenyl)-2-(2-hydroxy-ethoxy)ethyl)-5-methyl-6-(oxazol-2-yl)-3-((S)-2-oxopiperidin-3-yl)thieno[2,3-d]pyrimidine-2,4(1H,3H)-dione] yielded an MIC (C. albicans ATCC 90028) of 2.1 to 4 µg/mL (≈ 3.76 to 7.16 µM), an MIC [1] of 2.1 to 4 µg/mL (≈ 3.76 to 7.16 µM) and an MIC (C. krusei ATCC 6258) of 2.1 to 4 µg/mL (≈ 3.76 to 7.16 µM). The IC50 (Human ACC2) was 0.01 to 0.1 µM.
In the case of COc1ccccc1[C@H](Cn1c(=O)n(C2CCCN(C)C2=O)c(=O)c2c(C)c(-c3ncco3)sc21)OC1CCOCC1 (stereo partly drawn) [Compound I-50, 1-((R)-2-(2-methoxyphenyl)-2-((tetrahydro-2H-pyran-4-yl)oxy)ethyl)-5-methyl-3-(1-methyl-2-oxopiperidin-3-yl)-6-(oxazol-2-yl)thieno[2,3-d]pyrimidine-2,4(1H,3H)-dione], the MIC (C. albicans ATCC 90028) is reported as 2.1 to 4 µg/mL (≈ 3.53 to 6.73 µM), the MIC [1] is reported as 2.1 to 4 µg/mL (≈ 3.53 to 6.73 µM) and the MIC (C. krusei ATCC 6258) is reported as 2.1 to 4 µg/mL (≈ 3.53 to 6.73 µM). The IC50 (Human ACC2) was 0.01 to 0.1 µM.
With COc1ccc(F)cc1[C@H](Cn1c(=O)n([C@H]2CCNC2=O)c(=O)c2c(C)c(-n3nccn3)sc21)OC1CCOCC1 [Compound I-33, 1-((R)-2-(5-fluoro-2-methoxyphenyl)-2-((tetrahydro-2H-pyran-4-yl)oxy)ethyl)-5-methyl-3-((S)-2-oxopyrrolidin-3-yl)-6-(2H-1,2,3-triazol-2-yl)thieno[2,3-d]pyrimidine-2,4(1H,3H)-dione] the MIC (C. albicans ATCC 90028) was 2.1 to 4 µg/mL (≈ 3.59 to 6.84 µM), the MIC [1] was 2.1 to 4 µg/mL (≈ 3.59 to 6.84 µM) and the MIC (C. krusei ATCC 6258) was 1.1 to 2 µg/mL (≈ 1.88 to 3.42 µM). It also gave an IC50 (Human ACC2) of 0.002 to 0.01 µM.
For COc1ccc(F)cc1[C@H](Cn1c(=O)n([C@@]2(C)CCNC2=O)c(=O)c2c(C)c(-n3nccn3)sc21)OCCO [Compound I-145, 1-((R)-2-(5-fluoro-2-methoxyphenyl)-2-(2-hydroxy-ethoxy)ethyl)-5-methyl-3-((S)-3-methyl-2-oxopyrrolidin-3-yl)-6-(2H-1,2,3-triazol-2-yl)thieno[2,3-d]pyrimidine-2,4(1H,3H)-dione], the IC50 (Human ACC2) was > 1 µM.
For COc1ccc(F)cc1[C@H](Cn1c(=O)n([C@]2(C)CCC(=O)NC2)c(=O)c2c(C)c(-n3nccn3)sc21)OCCO [Compound I-133, 1-((R)-2-(5-fluoro-2-methoxyphenyl)-2-(2-hydroxy-ethoxy)ethyl)-5-methyl-3-((R)-3-methyl-6-oxopiperidin-3-yl)-6-(2H-1,2,3-triazol-2-yl)thieno[2,3-d]pyrimidine-2,4(1H,3H)-dione], the MIC (C. albicans ATCC 90028) was 2.1 to 4 µg/mL (≈ 3.67 to 6.99 µM), the MIC [1] was 2.1 to 4 µg/mL (≈ 3.67 to 6.99 µM) and the MIC (C. krusei ATCC 6258) was 2.1 to 4 µg/mL (≈ 3.67 to 6.99 µM). For the same compound, the IC50 (Human ACC2) was 0.01 to 0.1 µM.
CCN1CCC(n2c(=O)c3c(C)c(-n4nccn4)sc3n(C[C@H](OCCOC)c3cc(F)ccc3OC)c2=O)C1=O (stereo partly drawn) [Compound I-3, 3-(1-ethyl-2-oxopyrrolidin-3-yl)-1-((R)-2-(5-fluoro-2-methoxyphenyl)-2-(2-methoxyethoxy)ethyl)-5-methyl-6-(2H-1,2,3-triazol-2-yl)thieno[2,3-d]pyrimidine-2,4(1H,3H)-dione] was tested, and the MIC (C. albicans ATCC 90028) was 2.1 to 4 µg/mL (≈ 3.58 to 6.82 µM), the MIC [1] was 2.1 to 4 µg/mL (≈ 3.58 to 6.82 µM) and the MIC (C. krusei ATCC 6258) was 2.1 to 4 µg/mL (≈ 3.58 to 6.82 µM). It also gave an IC50 (Human ACC2) of 0.01 to 0.1 µM.
With COc1ccc(F)cc1[C@H](Cn1c(=O)n([C@@H]2CCCN(C(C)C)C2=O)c(=O)c2c(C)c(-n3nccn3)sc21)OC1CCOCC1 [Compound I-77, 1-((R)-2-(5-fluoro-2-methoxyphenyl)-2-((tetrahydro-2H-pyran-4-yl)oxy)ethyl)-3-((R)-1-isopropyl-2-oxopiperidin-3-yl)-5-methyl-6-(2H-1,2,3-triazol-2-yl)thieno[2,3-d]pyrimidine-2,4(1H,3H)-dione] the IC50 (Human ACC2) was 0.002 to 0.01 µM.
With COc1ccc(F)cc1[C@H](Cn1c(=O)n(C2CCN(C(C)C)C2=O)c(=O)c2c(C)c(-n3nccn3)sc21)OCCO (stereo partly drawn) [Compound I-8, 1-((R)-2-(5-fluoro-2-methoxyphenyl)-2-(2-hydroxyethoxy)ethyl)-3-(1-isopropyl-2-oxopyrrolidin-3-yl)-5-methyl-6-(2H-1,2,3-triazol-2-yl)thieno[2,3-d]pyrimidine-2,4(1H,3H)-dione] the IC50 (Human ACC2) was 0.002 to 0.01 µM.
With COc1ccc(F)cc1[C@H](Cn1c(=O)n([C@@]2(C)CCN(C)C2=O)c(=O)c2c(C)c(-n3nccn3)sc21)OCCO [Compound I-149, 3-((S)-1,3-dimethyl-2-oxopyrrolidin-3-yl)-1-((R)-2-(5-fluoro-2-methoxyphenyl)-2-(2-hydroxyethoxy)ethyl)-5-methyl-6-(2H-1,2,3-triazol-2-yl)thieno[2,3-d]pyrimidine-2,4(1H,3H)-dione] the IC50 (Human ACC2) was > 1 µM.
Compound COc1ccc(F)cc1[C@H](Cn1c(=O)n([C@H]2CCCN(C(C)C)C2=O)c(=O)c2c(C)c(-n3nccn3)sc21)OC1CCOCC1 [Compound I-76, 1-((R)-2-(5-fluoro-2-methoxyphenyl)-2-((tetrahydro-2H-pyran-4-yl)oxy)ethyl)-3-((S)-1-isopropyl-2-oxopiperidin-3-yl)-5-methyl-6-(2H-1,2,3-triazol-2-yl)thieno[2,3-d]pyrimidine-2,4(1H,3H)-dione] has an IC50 (Human ACC2) of 0.01 to 0.1 µM.
COc1ccc(F)cc1[C@H](Cn1c(=O)n(C2CCNC2=O)c(=O)c2c(C)c(-n3nccn3)sc21)OC1CCOCC1 (stereo partly drawn) [Compound I-9, 1-((R)-2-(5-fluoro-2-methoxyphenyl)-2-((tetrahydro-2H-pyran-4-yl)oxy)ethyl)-5-methyl-3-(2-oxopyrrolidin-3-yl)-6-(22H-1,2,3-triazol-2-yl)thieno[2,3-d]pyrimidine-2,4(1H,3H)-dione] gave an IC50 (Human ACC2) of 0.002 to 0.01 µM.
In the case of COc1ccc(F)cc1[C@H](Cn1c(=O)n([C@]2(C)CCN(C)C2=O)c(=O)c2c(C)c(-n3nccn3)sc21)OCCO [Compound I-147, 3-((R)-1,3-dimethyl-2-oxopyrrolidin-3-yl)-1-((R)-2-(5-fluoro-2-methoxyphenyl)-2-(2-hydroxyethoxy)ethyl)-5-methyl-6-(2H-1,2,3-triazol-2-yl)thieno[2,3-d]pyrimidine-2,4(1H,3H)-dione], the IC50 (Human ACC2) is reported as > 1 µM.
